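48-hour exposure; five concentrations; linearly interpolated endpoints. At the GI50, growth is halved.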 The source made the active and inactive calls. Rule as the data show it: active = GI50 up to about 1.1 µM and inactive = higher. Residues, ends and D or L forms follow the SMILES beside them. Groups on a side chain read outwards from the residue. *: point of attachment. Cbz = O=C(OCc1ccccc1)*; Boc = CC(C)(C)OC(=O)*
Key:
Test in all cases: NCI anticancer screen, dose series, 48 h
MOLT-4 = test system: MOLT-4
UACC-257 = test system: UACC-257
MDA-MB-231 = test system: MDA-MB-231
786-0 = test system: 786-0
HOP-62 = test system: HOP-62
HT-29 = test system: HT-29
OVCAR-5 = test system: OVCAR-5
NCI-H23 = test system: NCI-H23
SF-268 = test system: SF-268
LOX IMVI = test system: LOX IMVI
TK-10 = test system: TK-10
UACC-62 = test system: UACC-62
SK-MEL-5 = test system: SK-MEL-5
SW-620 = test system: SW-620
DU-145 = test system: DU-145
MCF7 = test system: MCF7
KM12 = test system: KM12
A498 = test system: A498
COLO 205 = test system: COLO 205
SK-OV-3 = test system: SK-OV-3

Compound	GI50 (MOLT-4)	GI50 (UACC-257)	GI50 (MDA-MB-231)	GI50 (786-0)	GI50 (HOP-62)	GI50 (HT-29)	GI50 (OVCAR-5)	GI50 (NCI-H23)	GI50 (SF-268)	GI50 (LOX IMVI)	GI50 (TK-10)	GI50 (UACC-62)	GI50 (SK-MEL-5)	GI50 (SW-620)	GI50 (DU-145)	GI50 (MCF7)	GI50 (KM12)	GI50 (A498)	GI50 (COLO 205)	GI50 (SK-OV-3)
CC(C)(C)OC(=O)NC(CCCCNC(=O)CNC(=O)OCc1ccccc1)C(=O)NC(CCCCNC(=O)CNC(=O)OCc1ccccc1)C(=O)NC(CCCCNC(=O)CNC(=O)OCc1ccccc1)C(=O)NC(CCCCNC(=O)CNC(=O)OCc1ccccc1)C(=O)O (stereo not given) (Boc-K([Gly-Cbz])K([Gly-Cbz])K([Gly-Cbz])K([Gly-Cbz])-OH; configuration not given here)	> 100 µM (inactive)	> 100 µM (inactive)	> 100 µM (inactive)	> 100 µM (inactive)	> 100 µM (inactive)	> 100 µM (inactive)	> 100 µM (inactive)	> 100 µM (inactive)	> 100 µM (inactive)	> 100 µM (inactive)	> 100 µM (inactive)	> 100 µM (inactive)	> 100 µM (inactive)	> 100 µM (inactive)	> 100 µM (inactive)	> 100 µM (inactive)				
COC1(OC)CC(CO)(CNc2nc(N)nc(Cl)c2/C=N\O)C1	15.3 µM (inactive)	27.7 µM (inactive)	72.9 µM (inactive)	44.2 µM (inactive)	23.2 µM (inactive)	38.4 µM (inactive)	20.7 µM (inactive)	9.77 µM (inactive)	> 100 µM (inactive)	22.7 µM (inactive)	25.9 µM (inactive)		43.1 µM (inactive)	> 100 µM (inactive)	34.3 µM (inactive)	24.1 µM (inactive)	7.05 µM (inactive)	18.5 µM (inactive)	38.6 µM (inactive)	
Cc1nc2c(=S)n(C)ncc2[nH]1	> 100 µM (inactive)	> 100 µM (inactive)	> 100 µM (inactive)	> 100 µM (inactive)	> 100 µM (inactive)	> 100 µM (inactive)	> 100 µM (inactive)	> 100 µM (inactive)		> 100 µM (inactive)	> 100 µM (inactive)	> 100 µM (inactive)	> 100 µM (inactive)	> 100 µM (inactive)		> 100 µM (inactive)	> 100 µM (inactive)	> 100 µM (inactive)	> 100 µM (inactive)	> 100 µM (inactive)
OC(c1cc2ccc(C(F)(F)F)cc2c2cc(C(F)(F)F)ccc12)C1CCCCN1 (stereo not given)	1.41 µM (inactive)	1.56 µM (inactive)	1.73 µM (inactive)	1.58 µM (inactive)	1.85 µM (inactive)	2.07 µM (inactive)	1.77 µM (inactive)	1.66 µM (inactive)	1.64 µM (inactive)	1.26 µM (inactive)	1.73 µM (inactive)	2.06 µM (inactive)	1.56 µM (inactive)	1.49 µM (inactive)	1.8 µM (inactive)	1.81 µM (inactive)	2.07 µM (inactive)		1.59 µM (inactive)	2.36 µM (inactive)
CCOC(=O)C1C(=O)CC(C)(O)C(C(=O)OCC)C1c1ccc(N(C)C)cc1 (stereo not given)	> 100 µM (inactive)	> 100 µM (inactive)	> 100 µM (inactive)	> 100 µM (inactive)	> 100 µM (inactive)	> 100 µM (inactive)	> 100 µM (inactive)	> 100 µM (inactive)	> 100 µM (inactive)	> 100 µM (inactive)	> 100 µM (inactive)	> 100 µM (inactive)	> 100 µM (inactive)	> 100 µM (inactive)	> 100 µM (inactive)	> 100 µM (inactive)	> 100 µM (inactive)	> 100 µM (inactive)	> 100 µM (inactive)	
O=C(Nc1nc(C23CC4CC(CC(C4)C2)C3)cs1)c1c(O)c2ccccc2[nH]c1=O	> 100 µM (inactive)	> 100 µM (inactive)	78.9 µM (inactive)	> 100 µM (inactive)	> 100 µM (inactive)	> 100 µM (inactive)	> 100 µM (inactive)	> 100 µM (inactive)	23.3 µM (inactive)	> 100 µM (inactive)	> 100 µM (inactive)		> 100 µM (inactive)	> 100 µM (inactive)	> 100 µM (inactive)	> 100 µM (inactive)	> 100 µM (inactive)	> 100 µM (inactive)	> 100 µM (inactive)	
CCc1cc2c(oc3cc(C)ccc32)c(=O)n1C	> 10 µM (inactive)	> 10 µM (inactive)	> 10 µM (inactive)	> 10 µM (inactive)		> 10 µM (inactive)	> 10 µM (inactive)	> 10 µM (inactive)	> 10 µM (inactive)	> 10 µM (inactive)	> 10 µM (inactive)			> 10 µM (inactive)	> 10 µM (inactive)	> 10 µM (inactive)	> 10 µM (inactive)			> 10 µM (inactive)
COc1ccc2c(O)c(S(=O)(=O)c3ccc(C)cc3)c(=O)oc2c1OC	> 100 µM (inactive)	> 100 µM (inactive)	> 100 µM (inactive)	> 100 µM (inactive)		> 100 µM (inactive)	> 100 µM (inactive)	> 100 µM (inactive)	> 100 µM (inactive)		> 100 µM (inactive)	> 100 µM (inactive)	> 100 µM (inactive)	> 100 µM (inactive)	> 100 µM (inactive)	> 100 µM (inactive)	> 100 µM (inactive)		> 100 µM (inactive)	> 100 µM (inactive)
CC1CCC(C(C)C)C(OC(=O)NCn2cc(-c3ccccc3)nn2)C1 (stereo not given)		> 100 µM (inactive)	> 100 µM (inactive)	41.2 µM (inactive)	25.6 µM (inactive)	> 100 µM (inactive)	> 100 µM (inactive)	> 100 µM (inactive)	58.7 µM (inactive)	> 100 µM (inactive)	75.5 µM (inactive)		> 100 µM (inactive)	> 100 µM (inactive)	> 100 µM (inactive)	> 100 µM (inactive)	> 100 µM (inactive)		> 100 µM (inactive)	
Nc1ncnc2c1ncn2C1C=CC(COS(N)(=O)=O)C1 (stereo not given)	7.85 µM (inactive)	63.5 µM (inactive)	20.2 µM (inactive)	18.5 µM (inactive)	16.8 µM (inactive)	14.9 µM (inactive)	64.1 µM (inactive)	9.77 µM (inactive)	33.7 µM (inactive)	5.53 µM (inactive)	> 100 µM (inactive)	20.6 µM (inactive)	30.4 µM (inactive)	12.9 µM (inactive)	66.8 µM (inactive)	6.43 µM (inactive)	19.2 µM (inactive)		16.9 µM (inactive)	52.7 µM (inactive)
CS(=O)(=O)CCC1CCC(=O)O1 (stereo not given)	22 µM (inactive)	> 100 µM (inactive)	> 100 µM (inactive)	> 100 µM (inactive)	40.5 µM (inactive)	> 100 µM (inactive)	> 100 µM (inactive)	94.2 µM (inactive)	51.9 µM (inactive)	20.6 µM (inactive)	> 100 µM (inactive)		> 100 µM (inactive)	> 100 µM (inactive)	96.8 µM (inactive)	58.9 µM (inactive)	> 100 µM (inactive)	> 100 µM (inactive)		
c1ccc(Cc2cccc3cc(-c4ccc(-c5ccccc5)cc4)[nH]c23)cc1	> 100 µM (inactive)	> 100 µM (inactive)	99.5 µM (inactive)	> 100 µM (inactive)	31.5 µM (inactive)	> 100 µM (inactive)	> 100 µM (inactive)	> 100 µM (inactive)	32.7 µM (inactive)	> 100 µM (inactive)	> 100 µM (inactive)	> 100 µM (inactive)	> 100 µM (inactive)	92 µM (inactive)	54.6 µM (inactive)	97.1 µM (inactive)	86.9 µM (inactive)		> 100 µM (inactive)	> 100 µM (inactive)
O=CNNC(=O)Nc1cccc2ccccc12	> 100 µM (inactive)	> 100 µM (inactive)	> 100 µM (inactive)	> 100 µM (inactive)	> 100 µM (inactive)	> 100 µM (inactive)	> 100 µM (inactive)	> 100 µM (inactive)	> 100 µM (inactive)		> 100 µM (inactive)	> 100 µM (inactive)	> 100 µM (inactive)	> 100 µM (inactive)	> 100 µM (inactive)	> 100 µM (inactive)	> 100 µM (inactive)		> 100 µM (inactive)	> 100 µM (inactive)
COc1ccc(N2C(=O)/C(=C\c3cccc(Oc4ccccc4)c3)S(=O)(=O)C2c2ccccc2)cc1 (stereo not given)	0.146 µM (active)	26.1 µM (inactive)	85.1 µM (inactive)	18.1 µM (inactive)	51.9 µM (inactive)		> 100 µM (inactive)	28.4 µM (inactive)		27.6 µM (inactive)	37.1 µM (inactive)	25.1 µM (inactive)	16.3 µM (inactive)	60.8 µM (inactive)	38.3 µM (inactive)	26 µM (inactive)	22.5 µM (inactive)	28.9 µM (inactive)	64.1 µM (inactive)	
O=C(CSC1=NC(=O)C2(NN1)c1ccccc1-c1ccccc12)NC(=S)Nc1ccccc1	9.14 µM (inactive)	> 10 µM (inactive)	> 10 µM (inactive)	> 10 µM (inactive)	> 10 µM (inactive)	> 10 µM (inactive)	> 10 µM (inactive)	> 10 µM (inactive)	> 10 µM (inactive)	> 10 µM (inactive)	> 10 µM (inactive)	> 10 µM (inactive)	> 10 µM (inactive)	> 10 µM (inactive)	> 10 µM (inactive)	4.27 µM (inactive)	> 10 µM (inactive)		> 10 µM (inactive)	> 10 µM (inactive)

From ChEMBL document CHEMBL1201862, “PubChem BioAssay data set” (2004)
